Assays:
plasma protein [1] = assay: Plasma protein binding (equilibrium dialysis), mouse; conditions: mouse plasma, 1 μM, 5 h dialysis
Description: Sample preparation: The compound was dissolved in DMSO to a stock solution of 10 mM, then the compound was diluted with PBS to a secondary stock solution of 0.02 mM, and then the above 0.02 mM was diluted to 1 μM using blank plasma, which was the sample to be incubated.
Dialysis set-up preparation: 400 μL of blank PBS was first added to the white wells of the equilibrated dialysis plate and 200 μL of the configured plasma sample was added to the red wells, and the dialysis plate was sealed with a sealing film.
Recovery plate preparation: Two 96-well deep-well plates, labelled T0 and T5, were prepared and all plasma samples were added at n=2. 300 μL of acetonitrile (Verapamil-HCl, 4 ng/mL) was added directly to the TO plate, followed by 50 μL of blank PBS mix well for 5 min and left to stand in a 4° C. refrigerator until the end of the incubation.
Experimental Operation: The dialysis device and the T5 plate were incubated together for 5 h in a microplate thermostatic shaker (37° C., using 300 rpm or minimum speed). At the end of the incubation, 300 μL of acetonitrile (Verapamil-HCl, 4 ng/mL) was added and 50 μL of PBS solution was added. At the end of the dialysis incubation, a new 96-well deep well plate was taken. Add 50 μL of plasma well sample to the corresponding position of the 96-well plate, 300 μL of acetonitrile and 50 μL of blank PBS; take 50 μL of buffer well sample to the corresponding position of the 96-well plate, then add 300 μL of acetonitrile and 50 μL of blank plasma. Add 300 μL of acetonitrile (Verapamil-HCl, 4 ng/mL) to the plasma-containing wells of the T5 plate, and then 50 μL of PBS solution was added. Shake for 5 min to fully precipitate the proteins and centrifuge at 20,000 g for 10 min at 4° C. Add 200 μL of supernatant to 200 μL of pure water, mix well and perform LC-MS/MS analysis.
• Plasma protein binding rate=[(Rpe−Rb)/Rpe]×100% • Recovery=[(Rpe+Rb)/R5 h]×100% • Stability=(R5/R0)×100%
• Rpe=ratio of plasma-side testing sample peak area to internal standard • Rb=ratio of buffer side testing sample peak area to internal standard • R5=ratio of incubator stability sample peak area to internal standard • R0=ratio of refrigerator stability sample peak area to internal standard

HK2 cells = assay: Cell Titer-Glo anti-proliferation, normal cells HK2; type: cell-based
Description: (§1) Compound solutions of different concentration gradients were prepared. […] The cell growth group without compound was used as a positive control (maximum signal control) and the medium was used as a negative control (minimum signal control), while ensuring that the final level of DMSO in each reaction well was 0.2%. After removing the medium from the 384-well plate, 25 μl of the configured compound at different concentrations was transferred into the well plate and the compound and cells were incubated in the cell incubator at 37° C. with 5% CO2 for 3 days.
(§2) The 384-well plates were removed from the cell incubator and allowed to equilibrate for 1 h to room temperature. 25 μl of Cell Titer-Glo assay was added to each well, lysed on a shaker for 2 min and then read out (Luminescence) using a BMG PHERAStar after 10 min incubation. Calculate the inhibition rate from the luminescence signal.
(§3) to calculate the rate of inhibition of the cells by different concentrations of the compounds. The IC50 of the compound on cell activity inhibition was calculated by fitting a log(inhibitor) vs. response-Variable slope model to GraphPad Prism 6. The fitted equation was: Y=Bottom+(Top-Bottom)/(1+10^((Log IC50−X)*HillSlope)), where Y represents the rate of inhibition and X represents the concentration of the known compound after Log.
(§4) B. Evaluation of the Anti-Proliferative Effect of Compounds by the Cell Titer-Glo Method on Normal Cells HUVEC and HK2.
(§5) The test method is the same as the anti-proliferative activity evaluation of tumor cells.

OVCAR-3 cells = assay: Cell Titer-Glo anti-proliferation, OVCAR-3 cells; type: cell-based; conditions: 3 days, read-out: Anti-proliferative activity OVCAR-3 (IC50 class)
In short: (§6)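 Each line was exposed to graded compound concentrations for 3 days at 37 °C, 5% CO2, with final DMSO at 0.2%. Viability was measured by Cell Titer-Glo luminescence, with untreated cells as the maximum and medium as the minimum signal. IC50 came from a variable-slope log(inhibitor)-response fit.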

HT-29 cells = assay: Cell Titer-Glo anti-proliferation, HT-29 cells; type: cell-based, human; conditions: 3 days, read-out: Anti-proliferative activity HT-29 (IC50 class)
In short: as §6

Caco-2 cells = assay: Membrane permeability in Caco-2 model; type: in vitro ADME; conditions: for Efflux Ration: Caco2; for Papp A to B / Papp B to A: Caco2, 10 μM, 90 min
Description: Caco-2 cells were purchased from the American Model Tissue Cell Collection (Rockville, MD). The cell culture medium was modified Eagle's medium (MEM) containing 10% inactivated fetal bovine serum and 1% non-essential amino acids. […] The cells were incubated for 21-28 days after inoculation for transport experiments and the apparent permeability (Papp) of Lucifer Yellow was used to characterize and verify the compactness of the cell monolayer. […] After the incubation, dilute the samples on the apical side and basolateral side, and the concentrations of compounds on the apical and basolateral sides were detected by LC-MS/MS, and the concentrations of the compounds were quantified by standard curve.

BxPC3 cells = assay: Cell Titer-Glo anti-proliferation, BxPC3 cells; type: cell-based, human; conditions: 3 days, read-out: Anti-proliferative activity BxPC3 (IC50 class)
In short: as §6

HUVEC cells = assay: Cell Titer-Glo anti-proliferation, normal cells HUVEC; type: cell-based
Description: as §1, §2, §3, §4, §5

plasma protein [2] = assay: Plasma protein binding (equilibrium dialysis), rat; type: in vitro ADME; conditions: 1 μM, 5 h dialysis
[3] = Metabolic stability in liver microsomes, human; type: in vitro ADME
Description: (§7) Test Example 3: Evaluation of the Metabolic Stability of Liver Microsomes (Mouse and Human) In Vitro Microsomes were taken out from the −80° C. refrigerator, rapidly melted in a 37° C. water bath and placed on ice until ready to use. The test article was diluted with DMSO to prepare a 10 mM stock solution, and then diluted with acetonitrile to a 0.5 mM secondary stock solution. […] NADPH was diluted with Buffer C to a working solution of 6 mM for the starter solution. An acetonitrile solution containing an internal standard was prepared as the precipitant, and Verapamil-HCl was chosen as the internal standard at a concentration of 4 ng/ml. […] A separate plate with pointed bottom wells, noted as a precipitation plate, was added with 135 μL precipitant per well; 0 h samples were transferred to the plate after 10 min incubation and 15 μL of starter solution was added; the plate was placed on ice before centrifugation. The diluted starter solution was added in sufficient quantity to the dispensing plate to facilitate the multichannel pipette aspiration operation. The reaction was carried out on a warm incubation shaker and 15 μL of starter solution/sample is added to the plate using a multichannel pipette. The reaction was mixed with a slight shake to initiate the reaction, which was accurately timed and recorded using a timer; After the reaction time had elapsed, all the solution in the plate was aspirated using the multichannel pipette and added to the precipitation plate to terminate the reaction at that point in time. After all reactions had been terminated, the plates were shaken for ten minutes on a plate shaker at 600 rpm to precipitate the protein. The plate was centrifuged at 4° C. for 15 minutes at maximum rpm. 80 μL of supernatant was taken, 320 μL of pure water was added and mixed for LC-MS analysis.

[4] = Metabolic stability in liver microsomes, dog; type: in vitro ADME
Description: as §7, with “Microsomes” for “Test Example 3: Evaluation of the Metabolic Stability of Liver Microsomes (Mouse and Human) In Vitro Microsomes”

[5] = Metabolic stability in liver microsomes, monkey; type: in vitro ADME
Description: as §7, with “Microsomes” for “Test Example 3: Evaluation of the Metabolic Stability of Liver Microsomes (Mouse and Human) In Vitro Microsomes”

[6] = Metabolic stability in liver microsomes, rat; type: in vitro ADME
Description: as §7, with “Microsomes” for “Test Example 3: Evaluation of the Metabolic Stability of Liver Microsomes (Mouse and Human) In Vitro Microsomes”

[7] = Metabolic stability in liver microsomes, mouse; type: in vitro ADME
Description: as §7

Wee1 protein = Wee1 protein (Homo sapiens (Human), UniProt P30291); assay: TR-FRET binding of compound to Wee1 protein and Tracer 178; conditions: Tracer 178, read-out: IC50, inhibitory activity against Wee1 kinase
Chain of Wee1 protein (P30291 whole entry): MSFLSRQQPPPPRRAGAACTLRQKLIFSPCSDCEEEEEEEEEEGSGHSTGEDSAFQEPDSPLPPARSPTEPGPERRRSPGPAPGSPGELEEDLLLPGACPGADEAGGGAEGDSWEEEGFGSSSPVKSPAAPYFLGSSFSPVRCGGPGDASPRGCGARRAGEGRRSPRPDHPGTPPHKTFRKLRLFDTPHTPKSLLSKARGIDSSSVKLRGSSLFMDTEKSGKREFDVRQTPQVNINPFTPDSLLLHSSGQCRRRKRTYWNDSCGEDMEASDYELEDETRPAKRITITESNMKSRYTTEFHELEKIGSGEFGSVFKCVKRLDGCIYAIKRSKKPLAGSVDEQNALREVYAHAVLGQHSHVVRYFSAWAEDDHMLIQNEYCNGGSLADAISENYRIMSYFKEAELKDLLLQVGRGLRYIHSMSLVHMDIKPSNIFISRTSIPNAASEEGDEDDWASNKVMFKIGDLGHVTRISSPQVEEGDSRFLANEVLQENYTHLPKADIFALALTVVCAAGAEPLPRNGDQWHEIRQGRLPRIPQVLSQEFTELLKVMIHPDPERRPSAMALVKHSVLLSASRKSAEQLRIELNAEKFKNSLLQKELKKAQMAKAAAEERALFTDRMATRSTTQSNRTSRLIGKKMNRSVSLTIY
Description: First, solutions of the compounds in different concentration gradients were prepared. The compounds were dissolved in DMSO and the compounds were diluted 4 folds with a total of 10 dose points and 2 parallel replicates for each concentration.
The IC50 for inhibition of enzyme activity by the compounds was then calculated using GraphPad Prism 6 and fitted with a log (inhibitor) vs. response-Variable slope mode. The fitting equation was: Y=Bottom+(Top−Bottom)/(1+10^((Log IC50−X)*HillSlope)), where Y represents the percentage of residual enzyme activity known and X represents the known concentration of compound after the logarithm.

hERG potassium channel = hERG potassium channel (Homo sapiens (Human), UniProt Q12809); assay: hERG potassium channel inhibition, patch clamp in CHO hERG cells
Chain of hERG potassium channel (Q12809 whole entry): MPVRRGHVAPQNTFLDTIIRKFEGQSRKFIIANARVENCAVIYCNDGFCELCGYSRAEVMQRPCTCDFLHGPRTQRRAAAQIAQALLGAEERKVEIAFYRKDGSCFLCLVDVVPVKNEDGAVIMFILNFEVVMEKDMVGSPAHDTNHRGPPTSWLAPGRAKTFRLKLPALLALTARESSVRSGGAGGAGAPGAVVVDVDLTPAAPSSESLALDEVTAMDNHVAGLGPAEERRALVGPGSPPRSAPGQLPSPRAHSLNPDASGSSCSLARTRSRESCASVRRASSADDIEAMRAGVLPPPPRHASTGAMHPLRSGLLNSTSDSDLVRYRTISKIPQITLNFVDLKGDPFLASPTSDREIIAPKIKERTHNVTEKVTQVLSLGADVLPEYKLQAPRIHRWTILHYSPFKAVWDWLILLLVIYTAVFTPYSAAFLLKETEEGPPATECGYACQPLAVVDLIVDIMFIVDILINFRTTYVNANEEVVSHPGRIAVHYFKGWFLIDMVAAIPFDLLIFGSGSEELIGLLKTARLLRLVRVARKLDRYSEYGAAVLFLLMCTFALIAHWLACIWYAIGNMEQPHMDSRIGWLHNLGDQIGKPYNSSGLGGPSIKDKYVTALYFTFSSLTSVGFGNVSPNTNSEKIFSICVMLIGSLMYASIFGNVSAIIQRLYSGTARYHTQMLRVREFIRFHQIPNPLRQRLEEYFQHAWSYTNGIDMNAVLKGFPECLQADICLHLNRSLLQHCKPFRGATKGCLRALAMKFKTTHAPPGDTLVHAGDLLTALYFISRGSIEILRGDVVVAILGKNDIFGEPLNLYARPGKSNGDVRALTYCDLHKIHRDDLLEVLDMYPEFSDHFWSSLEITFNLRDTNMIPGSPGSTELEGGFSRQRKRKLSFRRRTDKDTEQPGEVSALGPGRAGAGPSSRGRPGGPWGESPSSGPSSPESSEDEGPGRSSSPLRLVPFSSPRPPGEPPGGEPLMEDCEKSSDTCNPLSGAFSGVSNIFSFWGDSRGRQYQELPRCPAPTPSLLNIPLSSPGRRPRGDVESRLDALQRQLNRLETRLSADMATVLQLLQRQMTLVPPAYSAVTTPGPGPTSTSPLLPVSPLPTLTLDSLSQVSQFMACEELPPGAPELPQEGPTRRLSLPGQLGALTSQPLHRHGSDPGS
Description: The cell line used for the patch clamp assay was a 10th generation CHO cell overexpressing hERG potassium channel cDNA. CHO hERG cells were cultured in Petri dishes or flasks at 37° C. in a 5% CO2 incubator. Cells were dropped onto circular slides 24-48 hours prior to electrophysiological experiments and cultured in cell culture medium and used for experiments after the cells had been adhered.
Cell culture medium (purchased from Invitrogen) Composition: • Ham's F12 medium • 10% (v/v) heat inactivated FBS • 100 μg/ml Hygromycin B (thaumatin) • 100 μg/ml Geneticin (Genomycin, G418)
Compound powders are dissolved in the extracellular solution and are subjected to a routine 5 to 10 minute sonication and shaking to ensure complete dissolution of the compound.
The final concentrations of compounds used for electrophysiological assays were 5, 20 μM and the final concentration of DMSO was 0.1%.
Cell membrane currents were recorded using a HEKA EPC-10 USB patch-clamp amplifier (HEKA Elektronik, Germany). • 1) A coverslip with a large number of uniformly growing individual CHO hERG cells on its surface was taken. Place in a continuous recording cell on an inverted microscope, perfused with extracellular fluid (approximately 1 ml per minute) and recorded continuously, waiting for the current to stabilize. • 2) Record HERG channel currents for individual cells using standard whole cell recording mode. The membrane voltage is first clamped at −80 mV and the cell is given a +20 mV stimulus for 5 s to activate the hERG potassium channel, then repolarized to −50 mV for 5 s to generate an outward tail current, which is continuously perfused until the current is stable, at which point the peak tail current is the control current value. • 3) The extracellular solution containing the drug to be tested was then perfused and recorded until the inhibitory effect of the drug on the hERG current reached a steady state, at which point the peak tail current was the post-drug current value. • 4) The cells are again perfused with the extracellular solution until the hERG current returns to or approaches the level prior to the addition of the drug, then the perfusion can be continued to test other concentrations or drugs. One or more compound or drug concentrations may be tested on each cell. • 5) Cisapride (C4740-10 mg, Sigma) is used as a positive control in the experiment to ensure that the cells used respond properly.

Plasma Protein binding (PPB) Mouse (plasma protein [1])	IC50 (OVCAR-3 cells)	IC50 (HT-29 cells)	Efflux Ration (Caco-2 cells)	Papp A to B (Caco-2 cells)	Papp B to A (Caco-2 cells)	IC50 (BxPC3 cells)	Plasma Protein binding (PPB) Rat (plasma protein [2])	T1/2 liver microsomes Human [3]	T1/2 liver microsomes Dog [4]	T1/2 liver microsomes Monkey [5]	T1/2 liver microsomes Rat [6]	T1/2 liver microsomes Mouse [7]	IC50 (Wee1 protein)	SMILES	IC50 (HK2 cells)	IC50 (HUVEC cells)	hERG Inhibition (hERG potassium channel; test concentration 5 μM)	hERG Inhibition (hERG potassium channel; test concentration 20 μM)
96.26%														[2H][C@@]1(O)c2nc(-n3c4nc(Nc5ccc(N6CCC(N(C)C)CC6)c(C)c5)ncc4c(=O)n3CC=C)ccc2CCC12CC2 [Compound 41b]				
92.17%	0.1 to 1 µM	0.1 to 1 µM	21.59	0.41 10^−6 cm/s	8.85 10^−6 cm/s	0.1 to 1 µM								C=CCn1c(=O)c2cnc(Nc3ccc(N4CCC5(CCN(C)CC5)CC4)cc3)nc2n1-c1ccc2c(n1)C(C)(O)C1(CC1)C2 (stereo not shown) [Compound 11]	1.46 µM	> 10 µM		
98.46%							93.61%							[2H][C@]1(O)c2nc(-n3c4nc(Nc5ccc(N6CCC7(CCN(C)CC7)CC6)c(C)c5)ncc4c(=O)n3CC=C)ccc2CCC12CC2 [Compound 61b]				
92.29%	0.1 to 1 µM	0.1 to 1 µM				0.1 to 1 µM	86.08%	29.95 min	38.2 min	17.74 min	30.9 min	51.65 min	≤ 0.005 µM	C=CCn1c(=O)c2cnc(Nc3ccc(N4C[C@H]5CN(C)C[C@H]5C4)cc3)nc2n1-c1ccc2c(n1)C(O)(CC)C1(CC1)C2 (stereo partly shown) [Compound 28]	1.19 µM	> 10 µM		
	0.1 to 1 µM	0.1 to 1 µM				0.1 to 1 µM								C=CCn1c(=O)c2cnc(Nc3ccc(N4CCC(N(C)C)CC4)c(C)c3)nc2n1-c1ccc2c(n1)[C@H](O)C1(CC2)CC1 (single isomer, unassigned) [Compound 48b]			73.67 ± 0.93%	90.92 ± 0.49%
97.2%	0.1 to 1 µM	0.1 to 1 µM				1 to 2 µM							≤ 0.005 µM	C=CCn1c(=O)c2cnc(Nc3ccc(N4CCN(C)CC4)cc3)nc2n1-c1ccc2c(n1)C(C)(O)C1(CC2)CC1 (stereo not shown) [Compound 6]				
87.71%	0.1 to 1 µM	0.1 to 1 µM	14.03	0.94 10^−6 cm/s	13.19 10^−6 cm/s	0.1 to 1 µM	77.45%	44.82 min	41.74 min	22.84 min	>120 min	72.82 min	≤ 0.005 µM	C=CCn1c(=O)c2cnc(Nc3ccc(N4CCN(C)CC4)cc3)nc2n1-c1ccc2c(n1)[C@H](O)C1(CC2)CC1 (single isomer, unassigned) [Compound 4b]	1.29 µM	> 10 µM	23.84 ± 4.39%	42.42 ± 5.58%
			35.84	0.38 10^−6 cm/s	13.62 10^−6 cm/s									[2H][C@]1(O)c2nc(-n3c4nc(Nc5ccc(N6CC7CC(C6)N7C(C)C)cc5)ncc4c(=O)n3CC=C)ccc2CCC12CC2 [Compound 39b]			47.26 ± 2.27%	67.24 ± 1.32%

More lines, now with the values behind:

SMILES	Plasma Protein binding (PPB) Mouse (plasma protein [1])	IC50 (OVCAR-3 cells)	IC50 (HT-29 cells)	Efflux Ration (Caco-2 cells)	Papp A to B (Caco-2 cells)	Papp B to A (Caco-2 cells)	IC50 (BxPC3 cells)	Plasma Protein binding (PPB) Rat (plasma protein [2])	T1/2 liver microsomes Human [3]	T1/2 liver microsomes Dog [4]	T1/2 liver microsomes Monkey [5]	T1/2 liver microsomes Rat [6]	T1/2 liver microsomes Mouse [7]	IC50 (Wee1 protein)	IC50 (HK2 cells)	IC50 (HUVEC cells)	hERG Inhibition (hERG potassium channel; test concentration 5 μM)	hERG Inhibition (hERG potassium channel; test concentration 20 μM)
C=CCn1c(=O)c2cnc(Nc3ccc(N4CCC(N(C)C)CC4)c(C)c3)nc2n1-c1ccc2c(n1)C(C)(O)C1(CC1)C2 (racemic) [Compound 15]	93.51%	0.1 to 1 µM	0.1 to 1 µM				0.1 to 1 µM								0.76 µM	> 10 µM		
C=CCn1c(=O)c2cnc(Nc3ccc(N4CCC(N(C)C)CC4)c(C)c3)nc2n1-c1ccc2c(n1)[C@@](C)(O)C1(CC2)CC1 (single isomer, unassigned) [Compound 52a]		0.1 to 1 µM	0.1 to 1 µM				0.1 to 1 µM		26.24 min	22.8 min	14.22 min	31.42 min	96.19 min		0.48 µM	3.83 µM		
C=CCn1c(=O)c2cnc(Nc3ccc(N4CCN(C)CC4)cc3)nc2n1-c1ccc2c(n1)C(O)(CC)C1(CC2)CC1 (racemic) [Compound 21]	98.86%	0.1 to 1 µM	0.1 to 1 µM				1 to 2 µM											
C=CCn1c(=O)c2cnc(Nc3ccc(N4CCN(C)CC4)cc3)nc2n1-c1ccc2c(n1)C(O)(C(F)(F)F)C1(CC1)C2 (stereo not shown) [Compound 32]	96.87%	1 to 2 µM	0.1 to 1 µM				1 to 2 µM							0.005 to 0.01 µM	1.14 µM	> 10 µM		
C=CCn1c(=O)c2cnc(Nc3ccc(N4CC5CC(C4)N5C)cc3)nc2n1-c1ccc2c(n1)C(C)(O)C1(CC2)CC1 (stereo not shown) [Compound 7]		0.1 to 1 µM	0.1 to 1 µM				0.1 to 1 µM							≤ 0.005 µM			88.02 ± 3.87%	95.13 ± 1.06%

From patent US20250304587A1, “WEE1 INHIBITOR, PREPARATION THEREFOR AND USE THEREOF” (JIANGSU TASLY DIYI PHARMACEUTICAL CO., LTD., priority 2022, published 2025)
